According to ChEMBL document CHEMBL3399924, “Indirubin 3'-(O-oxiran-2-ylmethyl)oxime: a novel anticancer agent” (Bioorg Med Chem Lett, 2015):
Activity calls are given as the source filed them. No cut-off for these calls is given here.

Columns and labels:
[1] = system: HepG2; experiment: Antiproliferative activity against human HepG2 cells assessed cell survival after 24 hrs by alamarBlue assay; format: functional, cell-based
[2] = system: HepG2; experiment: Cytotoxicity against human HepG2 cells assessed cell death after 24 hrs at 1 uM by alamarBlue assay relative to control; format: functional; conditions: HepG2, 24 h
[3] = system: HepG2; experiment: Cytotoxicity against human HepG2 cells assessed cell death after 72 hrs at 2 uM by alamarBlue assay relative to control; format: functional; conditions: HepG2, 72 h
[4] = system: HepG2; experiment: Cytotoxicity against human HepG2 cells assessed cell death after 72 hrs at 3 uM by alamarBlue assay relative to control; format: functional; conditions: HepG2, 72 h
[5] = system: HepG2; experiment: Cytotoxicity against human HepG2 cells assessed cell death after 72 hrs by alamarBlue assay relative to control; format: functional, cell-based; conditions: HepG2, 72 h
[6] = system: HepG2; experiment: Drug metabolisam in human HepG2 cells assessed as indirubin 3'-(O-2,3-dihydroxypropyl)oxime formation at 1 uM by mass spectrometry; format: ADME, cell-based; conditions: hepg2, 1 µM
[7] = system: HepG2; experiment: Cytotoxicity against human HepG2 cells assessed cell survival rate after 24 hrs at 2 uM by alamarBlue assay relative to control; format: functional
[8] = system: HepG2; experiment: Cytotoxicity against human HepG2 cells assessed cell survival rate after 72 hrs at 2 uM by alamarBlue assay relative to control; format: functional
[9] = Retention time of the compound by HPLC chromatogram; format: physicochemical
[10] = system: HepG2; experiment: Cytotoxicity against human HepG2 cells assessed cell survival after 24 hrs at 10 uM by alamarBlue assay; format: functional, cell-based
[11] = system: HepG2; experiment: Drug formation in human HepG2 cells treated at 1 uM Epox/Ind by mass spectrometry; format: ADME, cell-based; conditions: hepg2, 1 µM
[12] = Homo sapiens, HepG2, 24 h, read-out: IC50

Row | Retention_time [9] | Compound | IC50 [1, 12] | inhibition at 2 µM [3] | inhibition at 3 µM [4] | IC50 [5] | also measured
1 | 4.3 min | O=C1Nc2ccccc2/C1=C1/Nc2ccccc2/C1=N\OCC1CO1 (stereo not drawn) | 1700 nM | 31% | 89% | 2300 nM | inhibition at 1 µM [2]: 25%; Drug metabolism [6]: metabolite_detected; Activity [7]: 69%; Activity [8]: 44%
2 | – | O=C1Nc2ccccc2/C1=C1/Nc2ccccc2C1=O [INDIRUBIN] | – | – | – | – | IC50 ([1]; hepg2): Not Active
3 | – | O=C1Nc2ccccc2/C1=C1/Nc2ccccc2/C1=N\O | 15000 nM | – | – | – | –
4 | – | O=C1Nc2ccccc2/C1=N\OCC1CO1 (stereo not drawn) | – | – | – | – | Activity [10]: inactive
5 | 3.392 min | O=C1Nc2ccccc2/C1=C1/Nc2ccccc2/C1=N\OCC(O)CO (stereo not drawn) | 2100 nM | 15% | 58% | 2800 nM | Drug metabolism [11]: metabolite_detected
